pIC50: −log10 of the molar value.

The assay concerns the target T1, full-length beta-Catenin (Uniprot ID P35222) (Homo sapiens, UniProt P35222).
T1 construct: 10 nM full-length beta-Catenin (Uniprot ID P35222)
T1 sequence (P35222 1-781): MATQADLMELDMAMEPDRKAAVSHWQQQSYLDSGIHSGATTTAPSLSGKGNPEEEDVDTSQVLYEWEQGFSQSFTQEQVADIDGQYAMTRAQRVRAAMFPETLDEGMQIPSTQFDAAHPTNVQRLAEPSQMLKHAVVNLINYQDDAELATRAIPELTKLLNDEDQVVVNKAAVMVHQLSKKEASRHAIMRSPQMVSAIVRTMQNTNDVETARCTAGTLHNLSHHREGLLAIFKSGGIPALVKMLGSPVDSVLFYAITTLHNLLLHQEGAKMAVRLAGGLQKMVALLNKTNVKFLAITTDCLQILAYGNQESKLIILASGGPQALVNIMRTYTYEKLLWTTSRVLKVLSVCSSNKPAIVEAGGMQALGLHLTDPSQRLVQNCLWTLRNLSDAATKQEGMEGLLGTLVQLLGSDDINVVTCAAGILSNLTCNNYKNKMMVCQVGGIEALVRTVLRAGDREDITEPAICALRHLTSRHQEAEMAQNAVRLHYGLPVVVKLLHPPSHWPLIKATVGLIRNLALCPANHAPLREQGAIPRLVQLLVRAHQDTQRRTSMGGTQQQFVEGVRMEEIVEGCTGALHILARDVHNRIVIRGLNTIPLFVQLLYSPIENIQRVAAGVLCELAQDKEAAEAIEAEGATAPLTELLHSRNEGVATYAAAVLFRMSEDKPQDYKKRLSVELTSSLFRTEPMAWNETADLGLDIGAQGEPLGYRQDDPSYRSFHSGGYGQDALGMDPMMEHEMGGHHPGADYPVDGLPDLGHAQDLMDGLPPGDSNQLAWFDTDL
Description: Fluorescence polarization IC50 (beta-catenin / 5FAM-TCF4 10-53 competition). The following applies: fluorescence polarization; read-out: beta-Catenin FP IC50. In kind it is binding. For orientation: Fluorescence polarisation rises when a labelled molecule tumbles more slowly, as on binding a larger partner.
One may read the pIC50 as −log10 of the IC50, conventionally taken in molar units. Consider `CC(=O)N1CCC[C@]12CC=CCCCC1(CCCC=CCCCOC(=O)N3CC[C@@](C(=O)N[C@@H](Cc4ccsc4)C(=O)N[C@@H](Cc4csc5ccccc45)C(=O)N[C@@H](CCC(N)=O)C(N)=O)(C3)NC(=O)[C@H](CC(N)=O)NC(=O)[C@H](Cc3ccccc3)NC(=O)[C@H](C)NC(=O)[C@H](C)NC(=O)[C@H](Cc3ccc(O)cc3)NC(=O)[C@H](CC(N)=O)NC1=O)NC(=O)[C@H](CC(C)(C)C)NC(=O)[C@H](CC(=O)O)NC2=O` (stereo partly drawn) [I-1568, Ac-PL3-Asp-Npg-B5-Asn-Tyr-Ala-Ala-Phe-Asn-PyrS2-3Thi-BztA-Gln-NH2], for which the pIC50 is 5.14.
Take `CC(=O)N1CCC[C@]12CC=CCCCC1(CCCC=CCCCOC(=O)N3CC[C@@](C(=O)N[C@@H](Cc4ccsc4)C(=O)N[C@@H](Cc4csc5ccccc45)C(=O)N[C@@H](CCC(N)=O)C(N)=O)(C3)NC(=O)[C@H](CC(N)=O)NC(=O)[C@H](Cc3ccccc3)NC(=O)[C@H](C)NC(=O)[C@H](C)NC(=O)[C@H](Cc3ccc(O)cc3)NC(=O)[C@H](CC(N)=O)NC1=O)NC(=O)[C@H](CC(C)(C)C)NC(=O)[C@H](CC(=O)O)NC2=O` (stereo partly drawn) [I-1569, Ac-PL3-Asp-Npg-B5-Asn-Tyr-Ala-Ala-Phe-Asn-PyrS2-3Thi-BztA-Gln-NH2]: the pIC50 was 5.57.
For the compound `CC(=O)N1CCC[C@]12CC=CCCCC1(CCCC=CCCCOC(=O)N3CC[C@@](C(=O)N[C@@H](Cc4ccsc4)C(=O)N[C@@H](Cc4csc5ccccc45)C(=O)N[C@@H](CCC(N)=O)C(N)=O)(C3)NC(=O)[C@H](CC(N)=O)NC(=O)[C@H](Cc3ccccc3)NC(=O)[C@H](C)NC(=O)[C@H](C)NC(=O)[C@H](CC(C)C)NC(=O)[C@H](CC(N)=O)NC1=O)NC(=O)[C@H](CC(C)(C)C)NC(=O)[C@H](CC(=O)O)NC2=O` (stereo partly drawn) [I-1570, Ac-PL3-Asp-Npg-B5-Asn-Leu-Ala-Ala-Phe-Asn-PyrS2-3Thi-BztA-Gln-NH2], the pIC50 is 5.87.
As for `CC(=O)N1CC2CC1C(=O)N[C@@H](CC(=O)O)C(=O)N[C@@H](CC(C)(C)C)C(=O)NC1(CCCC=CCCCOC(=O)N3CC[C@@](C(=O)N[C@@H](Cc4ccsc4)C(=O)N[C@@H](Cc4csc5ccccc45)C(=O)N[C@@H](CCC(N)=O)C(N)=O)(C3)NC(=O)[C@H](CC(N)=O)NC(=O)[C@H](Cc3ccccc3)NC(=O)[C@H](C)NC(=O)[C@H](C)NC(=O)[C@H](CC(=O)O)NC(=O)[C@H](CC(=O)O)NC1=O)CCCC=CCC(=O)O2` (stereo partly drawn) [I-1575, Ac-HypEs4-Asp-Npg-B5-Asp-Asp-Ala-Ala-Phe-Asn-PyrS2-3Thi-BztA-Gln-NH2], the pIC50 is 7.10.
On to `CC(=O)N1CCC[C@]12CC=CCCCC1(CCCC=CCCCOC(=O)N3CC[C@@](C(=O)N[C@@H](Cc4ccccc4)C(=O)N[C@@H](Cc4csc5ccccc45)C(=O)N[C@@H](CCC(N)=O)C(N)=O)(C3)NC(=O)[C@H](CC(C)C)NC(=O)[C@H](Cc3ccccc3)NC(=O)[C@H](C)NC(=O)[C@H](CCCCNC(C)C)NC(=O)[C@H]([C@@H](C)O)NC(=O)[C@H](CC(=O)O)NC1=O)NC(=O)[C@H](Cc1ccccc1)NC(=O)[C@H](CC(N)=O)NC2=O` (stereo partly drawn) [I-1580, Ac-PL3-Asn-Phe-B5-Asp-Thr-iPrLys-Ala-Phe-Leu-PyrS2-Phe-BztA-Gln-NH2], for which the pIC50 is 5.85.
Consider `CC(=O)N1CCC[C@]12CC=CCCCC1(CCCC=CCCCOC(=O)N3CC[C@@](C(=O)N[C@@H](Cc4ccccc4)C(=O)N[C@@H](Cc4csc5ccccc45)C(=O)N[C@@H](CCC(N)=O)C(N)=O)(C3)NC(=O)[C@H](CC(C)C)NC(=O)[C@H](Cc3ccccc3)NC(=O)[C@H](C)NC(=O)[C@H](CCCCNC(C)C)NC(=O)[C@H]([C@@H](C)O)NC(=O)[C@H](CC(=O)O)NC1=O)NC(=O)[C@H](CC(C)C)NC(=O)[C@H](CC(N)=O)NC2=O` (stereo partly drawn) [I-1582, Ac-PL3-Asn-Leu-B5-Asp-Thr-iPrLys-Ala-Phe-Leu-PyrS2-Phe-BztA-Gln-NH2], for which the pIC50 is 5.91.
On to `CC(=O)N1CCC[C@]12CC=CCCCC1(CCCC=CCCCOC(=O)N3CC[C@@](C(=O)N[C@@H](Cc4ccccc4)C(=O)N[C@@H](Cc4csc5ccccc45)C(=O)N[C@@H](CCC(N)=O)C(N)=O)(C3)NC(=O)[C@H](CC(C)C)NC(=O)[C@H](Cc3ccccc3)NC(=O)[C@H](C)NC(=O)[C@H](CCCCNC(C)C)NC(=O)[C@H]([C@@H](C)O)NC(=O)[C@H](CC(=O)O)NC1=O)NC(=O)[C@H](CO)NC(=O)[C@H](CC(N)=O)NC2=O` (stereo partly drawn) [I-1583, Ac-PL3-Asn-Ser-B5-Asp-Thr-iPrLys-Ala-Phe-Leu-PyrS2-Phe-BztA-Gln-NH2], for which the pIC50 is 5.47.
On to `CC(=O)N1CCC[C@]12CC=CCCCC1(CCCC=CCCCOC(=O)N3CC[C@@](C(=O)N[C@@H](Cc4ccccc4)C(=O)N[C@@H](Cc4csc5ccccc45)C(=O)N[C@@H](CCC(N)=O)C(N)=O)(C3)NC(=O)[C@H](CC(C)C)NC(=O)[C@H](Cc3ccccc3)NC(=O)[C@H](C)NC(=O)[C@H](CCCCNC(C)C)NC(=O)[C@H]([C@@H](C)O)NC(=O)[C@H](CC(=O)O)NC1=O)NC(=O)[C@H](CCC(N)=O)NC(=O)[C@H](CC(N)=O)NC2=O` (stereo partly drawn) [I-1584, Ac-PL3-Asn-Gln-B5-Asp-Thr-iPrLys-Ala-Phe-Leu-PyrS2-Phe-BztA-Gln-NH2], for which the pIC50 was 5.61.
Turning to `CC(=O)N1CCC[C@]12CC=CCCCC1(CCCC=CCCCOC(=O)N3CC[C@@](C(=O)N[C@@H](Cc4ccccc4)C(=O)N[C@@H](Cc4csc5ccccc45)C(=O)N[C@@H](CCC(N)=O)C(N)=O)(C3)NC(=O)[C@H](CC(C)C)NC(=O)[C@H](Cc3ccccc3)NC(=O)[C@H](C)NC(=O)[C@H](CCCCNC(C)C)NC(=O)[C@H]([C@@H](C)O)NC(=O)[C@H](CC(=O)O)NC1=O)NC(=O)[C@H](CCCCNC(C)C)NC(=O)[C@H](CC(N)=O)NC2=O` (stereo partly drawn) [I-1591, Ac-PL3-Asn-iPrLys-B5-Asp-Thr-iPrLys-Ala-Phe-Leu-PyrS2-Phe-BztA-Gln-NH2], the pIC50 is 5.51.
For `CC(=O)N1CCC[C@]12CC=CCCCC1(CCCC=CCCCOC(=O)N3CC[C@@](C(=O)N[C@@H](Cc4ccccc4)C(=O)N[C@@H](Cc4csc5ccccc45)C(=O)N[C@@H](CCC(N)=O)C(N)=O)(C3)NC(=O)[C@H](CC(C)C)NC(=O)[C@H](Cc3ccccc3)NC(=O)[C@H](C)NC(=O)[C@H](CCCCNC(C)C)NC(=O)[C@H](Cc3cccc(C(N)=O)c3)NC(=O)[C@H](CC(=O)O)NC1=O)NC(=O)[C@H](CC(C)(C)C)NC(=O)[C@H](CC(N)=O)NC2=O` (stereo partly drawn) [I-1592, Ac-PL3-Asn-Npg-B5-Asp-3cbmf-iPrLys-Ala-Phe-Leu-PyrS2-Phe-BztA-Gln-NH2] the value was 5.55; for `CC(=O)N1CCC[C@]12CC=CCCCC1(CCCC=CCCCOC(=O)N3CC[C@@](C(=O)N[C@@H](Cc4ccccc4)C(=O)N[C@@H](Cc4csc5ccccc45)C(=O)N[C@@H](CCC(N)=O)C(N)=O)(C3)NC(=O)[C@H](CC(C)C)NC(=O)[C@H](CO)NC(=O)[C@H](C)NC(=O)[C@H](CCCCNC(C)C)NC(=O)[C@H]([C@@H](C)O)NC(=O)[C@H](CC(=O)O)NC1=O)NC(=O)[C@H](CC(C)(C)C)NC(=O)[C@H](CC(N)=O)NC2=O` (stereo partly drawn) [I-1597, Ac-PL3-Asn-Npg-B5-Asp-Thr-iPrLys-Ala-Ser-Leu-PyrS2-Phe-BztA-Gln-NH2], 5.16; for `CC(=O)N1CCC[C@]12CC=CCCCC1(CCCC=CCCCOC(=O)N3CC[C@@](C(=O)N[C@@H](Cc4ccccc4)C(=O)N[C@@H](Cc4csc5ccccc45)C(=O)N[C@@H](CCC(N)=O)C(N)=O)(C3)NC(=O)[C@H](Cc3ccccc3)NC(=O)[C@H](Cc3ccccc3)NC(=O)[C@H](C)NC(=O)[C@H](CCCCNC(C)C)NC(=O)[C@H]([C@@H](C)O)NC(=O)[C@H](CC(=O)O)NC1=O)NC(=O)[C@H](CC(C)(C)C)NC(=O)[C@H](CC(N)=O)NC2=O` (stereo partly drawn) [I-1599, Ac-PL3-Asn-Npg-B5-Asp-Thr-iPrLys-Ala-Phe-Phe-PyrS2-Phe-BztA-Gln-NH2], 5.97.

The values are drawn from US20240116985A1, “STAPLED PEPTIDES AND METHODS THEREOF” (priority 2020, published 2024).
